“Also recorded” adds a separate entry of the source.
Columns and labels:
THP-1 = assay: viability of THP-1 acute leukemia cells; assay type: cell-based; details: Homo sapiens; Andrographolide (50 μM) alone; second cell line not named in the sentence (THP-1)
Procedure: (§1) FIG. 3. […] Andrographolide (50 μM) alone reduced cell viability to 54.3±2.8% in CCRF-CEM cells and to 68.5±1.4%. *** =P<0.001.
(§2) Andrographolide (50 μM) and Frondoside A (between 1 and 3 mM) was assayed for anticancer effects through determining cell viability of the two human, acute leukemia cell lines CCRF-CEM and THP-1. […] Andrographolide (50 μM) alone reduced cell viability to 54.3±2.8% in CCRF-CEM cells and to 68.5±1.4%. (FIG. 3)

CCRF-CEM = assay: viability of CCRF-CEM acute leukemia cells; assay type: cell-based; details: Homo sapiens, Andrographolide (50 μM) alone, read-out: cell viability
Procedure: as §1, §2

PAK-1 kinase = PAK-1 kinase (Homo sapiens, UniProt Q13153); details: in vitro; cited from earlier work
[1] = mice; cited from earlier work
[2] = pharmacokinetics study by oral route, LC/MS/MS detection in the blood; assay type: in vivo, humans
Procedure: In a pharmacokinetics and pharmacodynamics study of Frondoside A by oral route in humans, as are known to those skilled in the arts, dosage of 10 milligrams of Frondoside A is delivered in an enteric coated gelatin capsule, as are known to those skilled in the arts and is detected by LC/MS/MS in the blood up to 20 hours later. In a pharmacokinetics and pharmacodynamics study in a huma of Frondoside A by oral route in humans, a dosage of 10 milligrams of Frondoside A in a capsule without the benefit of enteric coated capsule delivery, is not detected by LC/MS/MS in the blood up to 20 hours later.

[3] = lack of change in CBC, liver function tests, body weight; cited from earlier work
[4] = test system: AsPC-1 human pancreatic cancer cells; assay: viability of AsPC-1 pancreatic cancer cells; assay type: cell-based; details: for enhancing effect of Andrographolide on the response: in the presence of Andrographolide; for enhancing effect of Andrographolide on the response / reduction in viability: AsPC-1 (FIG. 6); for comparison of effects on cell viability / reduction in viability: single agents; for comparison of effects on cell viability: AsPC-1 (FIG. 5)
Procedure: Andrographolide at 1 mM and Frondoside A (between 1 mM and 3 mM) were assayed for anticancer effects on the viability of the two human pancreatic cancer cell lines, AsPC-1 and S2013.

[5] = test system: HT29 human colonic cancer cells; assay: viability of HT29 colonic cancer cells; details: HT29 (FIG. 7); for enhancing effect of Andrographolide on the response: in the presence of Andrographolide; for reduction in viability: single agents

PAK-1 kinase, sequence (Q13153 whole entry): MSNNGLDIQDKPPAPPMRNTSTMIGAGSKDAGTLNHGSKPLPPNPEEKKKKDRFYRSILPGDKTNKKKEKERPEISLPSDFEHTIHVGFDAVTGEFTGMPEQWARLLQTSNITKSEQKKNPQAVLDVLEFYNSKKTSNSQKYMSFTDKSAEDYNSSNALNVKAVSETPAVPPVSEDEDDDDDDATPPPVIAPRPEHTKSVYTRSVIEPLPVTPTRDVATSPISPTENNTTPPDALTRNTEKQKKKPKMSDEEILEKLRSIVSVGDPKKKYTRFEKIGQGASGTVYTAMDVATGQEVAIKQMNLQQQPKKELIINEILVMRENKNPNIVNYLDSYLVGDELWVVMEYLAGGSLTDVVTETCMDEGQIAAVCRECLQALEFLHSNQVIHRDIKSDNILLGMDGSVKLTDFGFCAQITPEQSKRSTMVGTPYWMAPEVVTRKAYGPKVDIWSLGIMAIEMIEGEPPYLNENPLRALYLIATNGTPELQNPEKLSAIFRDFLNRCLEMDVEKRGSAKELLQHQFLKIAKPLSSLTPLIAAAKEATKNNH

Row | Compound | enhancing effect of Andrographolide on the response [4] | comparison of effects on cell viability [4] | reduction in viability [4] | enhancing effect of Andrographolide on the response [5] | reduction in viability [5] | other results
1 | C=C1CC[C@@H]2[C@](C)(CO)[C@H](O)CC[C@@]2(C)[C@@H]1C/C=C1/C(=O)OC[C@H]1O [Andrographolide] |  |  |  |  |  | viability at 50 µM (THP-1): 68.5 ± 1.4%; viability at 50 µM (CCRF-CEM): 54.3 ± 2.8%
2 | CO[C@@H]1[C@@H](O)[C@H](O[C@@H]2[C@@H](O)[C@H](O[C@H]3[C@H](O)[C@@H](O[C@@H]4OC[C@@H](O)[C@H](O)[C@H]4O)[C@H](O[C@H]4[C@H](OC5CC[C@]6(C)[C@H]7CCC89C(=O)O[C@@](C)(CCCC(C)C)C8[C@@H](OC(C)=O)C[C@@]9(C)C7=CC[C@H]6C5(C)C)OC[C@@H](OS(=O)(=O)[O-])[C@@H]4O)O[C@@H]3C)OC[C@H]2O)O[C@H](CO)[C@H]1O.[Na+] (stereo partly drawn) [Frondoside A] |  |  |  |  |  | PAK-1 inhibition (PAK-1 kinase): inhibitor of PAK-1 kinase; LD50 [1]: 9.9 mg/kg; detected by LC/MS/MS in the blood up to 20 hours later ([2]; 10 milligrams in a capsule without enteric coating, human): not detected; detected by LC/MS/MS in the blood ([2]; 10 milligrams in an enteric coated gelatin capsule, humans): up to 20 hours; LD50 relative to the dose used therapeutically (LD50 in mice): more than 1000 times; toxic effects at therapeutic doses [3]: does not have toxic effects at therapeutic doses
3 | CCn1c(=O)c(-c2ccc(-c3cncc(C)n3)cc2Cl)cc2cnc(NCCC3CCN(C)CC3)nc21 [FRAX1036] | no enhancing effect | less potent anti-cancer compounds | dose responsive reduction in viability | no enhancing effect | modest dose responsive reduction in viability | 
4 | CCn1c(=O)c(-c2ccc(-c3cncs3)cc2Cl)cc2cnc(Nc3ccc(N4CCN(C)CC4)cc3)nc21 [FRAX597] | no enhancing effect; also recorded: tendency of the reduced effectiveness | less potent anti-cancer compounds | dose responsive reduction in viability | no enhancing effect; also recorded: tendency of the reduced effectiveness | modest dose responsive reduction in viability | 
